The values that follow come from patent publication US10213451B2, “Methods and compounds for modulating the secretion or expression of adhesion proteins or angiopoietins of cells” (PACIFIC ARROW LIMITED, priority 2004, dated 2019).

The subject of one experiment is tumor growth. Put plainly: MTT anticancer activity of Y, X and hydrolysis products (FIG. 4C). It counts as cell-based. How it is done: (§1) MTT Assay. The procedure for MTT assay followed the method described by Carmichael et al. (1987) with modifications. The cells were seeded into a 96-well plate at concentration of 10,000/well for HTB-9, HeLa, H460, HCT116, T98G and OVCAR-3), 15,000/well for DU145, MCF-7, HepG2 and U2OS), and 40,000/well for K562 for 24 hours before drug-treatment. The cells were then exposed to the drugs for 48 hours (72 hours for HepG2 and U2OS, and 96 hours for MCF-7). After the drug-treatment, MTT (0.5 mg/mL) was added to cultures and incubated for an hour. The formazan (product of the reduction of tetrazolium by viable cells) formed and was dissolved with DMSO and the O.D. at 490 nm, and was measured by an ELISA reader. The MTT level of the cells before drug-treatment was also measured (T0). The % cell-growth (% G) is calculated as: % G=(TD−T0/TC−T0)×100(1), where TC or TD represents O.D. readings of control or drug-treated cells. When T0>TD, then the cytotoxicity (LC) expressed as % of the control is calculated as: % LC=(TD−T0/T0)×100(2).
(A) Alkaline Hydrolysis of Xanifolia-Y: 20 mg of Xanifolia-Y was dissolved in 0.5 mL of 1M NaOH. The solution was incubated in an 80° C. water bath for 4 hours. It was cooled to room temperature before being neutralized with 0.5 mL 1 N HCl (adjusted pH to about 3). The mixture was extracted with 2 mL 1-butanol 3 times. The butanol fractions were collected and lyophilized. The hydrolyzed saponin was further purified with HPLC in a C-18 column eluted with 25% acetonitrile.
(B) Acid Hydrolysis of Xanifolia-Y: 15 mg Xanifolia-Y was dissolved in 1 mL of Methanol. 1 mL of 2N HCl was then added. The mixture was refluxed in an 80° C. water bath for 5 hours. The solution was then neutralized by adding 2 mL of 1N NaOH (to a final pH 3-4). The aglycone was then extracted with ethylacetate 3 mL×3. The extracts were collected and pooled. Further isolation of aglycone (sugar-removed Xanifolia-Y) was achieved by HPLC with isocratic elution of 80% acetonitrile.

Experiment [1] deals with Fibronectin secretion from ES2 cells. Nature of the experiment: Fibronectin secretion (Western blot), ES2 cells. Particulars: for inhibition at 10 µg/mL: Homo sapiens, ES-2, ES2 cells; for % inhibition of Fibronectin secretion / Fibronectin secreted / FN band intensity, % of DMSO control: ES2 cells. It counts as cell-based, human. How it is done:
Inhibition of Fibronectin secretion is physiological and the determination of its quantity is based on the following criteria: • 1. Fibronectin is secreted from viable cells. Only cell with over 85% viable cells after drug-treatment are employed in these experiments. The viable cells were determined by MTT assay. • 2. For comparison, the immuno-band intensity from each samples are normalized with cell mass. The cell mass was determined by the MTT assay and is assigned as a MTT unit for each cell sample.
Cells: ES2 cells were grew in T-25 flask with RPMI 1640 medium over night before drug-treatment. Drug-treatment: cells cultures were replaced with fresh RPMI medium with Xanifolia-Y (10 ug/ml final concentration) or DMSO (as control) at 0 hour. At 1, 2, 4, 8 and 24 hour, aliquot of culture medium was taken out for Fibronectin determination. Fibronectin was determined by Western blot with monoclonal antibody (SIGMA) specific to human Fibronectin only.
Drug-treatment: cells cultures were replaced with fresh RPMI medium containing Xanifolia-Y (10 ug/ml final concentration) or DMSO (as control) at 0 hour. At 4 hours (A) or 8 hour (B), culture medium was replaced with fresh culture medium without drug. At 2, 4, 8 and 24 hour, aliquot of culture medium was taken out for Fibronectin determination. Fibronectin (FN) was determined by Western blot with monoclonal antibody (SIGMA) specific only to human Fibronectin.
(§2) Drug-treatment: cells cultures were replaced with fresh RPMI medium containing Xanifolia-Y (10 ug/ml final concentration) or DMSO (as control) at 0 hour. At 2, and 18 hour, aliquot of culture medium was taken out for Fibronectin determination (Western blot method). Cell viability at 18 hours was determined by MTT assay. Cultures were replaced with RPMI medium with MTT and incubated for an hour. The formation of formazan was dissolved in DMSO and OD at 570 nm was measured.
Cells and Drug-treatment: same as previous experiments. After 7 or 24 hours, aliquot of culture medium was taken out for Fibronectin determination (Western blot method). Cell viability at 24 hours was determined by MTT assay.
Cells: ES2 cells were grew in RPMI 1640 medium over night before drug-treatment. Drug-treatment: cells cultures were replaced with fresh RPMI medium containing DMSO (as control) [D]; Xanifolia-Y (10 ug/ml) [Y]; or Paclitaxel 10 or 50 ng/ml [T10, ro T50]. After 24 hours, aliquot of culture medium was taken out for Fibronectin determination (Western blot method). Cell viability at 24 hours was determined by MTT assay.
The amount of Fibronectin secreted by cells into medium was determined by Western blot assay. The amount of Fibronectin secreted per cells basis was determined by dividing the Western-band intensity with the MTT unit.
Western Blot: Spent culture medium (0.6 ml) was mixed with SDS sample buffer (0.2 ml), boiled for 3 minutes before loading to SDS gel. Samples (60 ul/lane) were applied to a 6% SDS gel and electrophoresis was conducted with 100 volts for 2 hours. Protein was transferred to a nitrocellulose paper electrophoretically (30 min at 100 volts). The Western blot was incubated with the first antibody (mouse anti-FN, specific to human FN, SIGMA F0916) and second antibody (Anti-mouse IgG AP conjugated, Promega S3721). The immunobands were developed with BCIP/NBT color development system (Promega S3771).
Background: In western blotting, separated proteins are transferred to a membrane and probed.

Experiment [2] concerns Fibronectin secretion from lung carcinoma cells (H460). Nature of the experiment: Fibronectin secretion (Western blot), H460 cells. It counts as cell-based, human. Particulars: 10 ug/ml; for inhibition at 10 µg/mL: Homo sapiens, NCI-H460, H460 cells.
In experiment [3] the test system is Fibronectin secretion from bladder carcinoma cells (HTB-9). Nature of the experiment: Fibronectin secretion (Western blot), HTB-9 cells. It counts as cell-based, human. Particulars: 10 ug/ml; for inhibition at 10 µg/mL: Homo sapiens.
The test system of experiment [4] is Fibronectin secretion from liver HepG2 cells. Nature of the experiment: Fibronectin secretion (Western blot), HepG2 cells. It counts as cell-based, human. Conditions: 10 ug/ml; for inhibition at 10 µg/mL: Homo sapiens, HepG2, HepG2 cells; for % inhibition of Fibronectin secretion: HepG2 cells.
Experiment [5] has as its system Fibronectin secretion from brain glioblastoma T98G cells. Put plainly: Fibronectin secretion (Western blot), T98G cells. It counts as cell-based, human. Conditions: for inhibition at 10 µg/mL: Homo sapiens.
Experiment [6] concerns Fibronectin secretion from skin SK-Mel-5 cells. Put plainly: Fibronectin secretion (Western blot), SK-MEL-5 cells. It counts as cell-based, human. Conditions: for inhibition at 10 µg/mL: Homo sapiens.
In another experiment the test system is ES2(ovarian) cells. Put plainly: MTT assay ES2. It counts as cell-based, human. How it is done:
as §1
Methods: ES2 cells were exposed to (i) Xanifolia-Y with concentrations of 40, 20, 10, 5, 2.5, and 1.25 ug/ml; or (ii) Paclitaxel with concentrations of […]; or (iii) Combined Xanifolia-Y and Paclitaxel with concentrations of each drug in same order (for example, 40 ug/ml Y plus 10 ng/ml T; 20 ug/ml Y plus 5 ng/ml T, etc. please see FIG. 28). Cells growth under these conditions was determined by the MTT assay.
as §2

As for `CC1O[C@@H](OC2[C@H](OC3[C@H](O[C@H]4C(O[C@@H]5OC(CO)[C@H](O)[C@@H](O)C5O)[C@H](O[C@H]5CC[C@@]6(C)C(CC[C@]7(C)C6CC[C@]68O[C@H](O)[C@]9(C6CC(C)(C)[C@@H](O)[C@@H]9O)[C@H](O)C[C@]87C)C5(C)C)OC(C(=O)O)[C@H]4O)OC(CO)[C@H](O)[C@H]3O)OC(C)[C@H](O)[C@@H]2O)C(O)[C@@H](O)[C@H]1O` (stereo partly drawn) [AKOH-Mb5], the “anticancer activity after alkaline hydrolysis” value with tumor growth is “lost anticancer activity”.
The inhibition is the relative decrease from the control value, in per cent. With `C/C=C(/C)C(=O)O[C@H]1[C@H](OC(=O)/C(C)=C\C)[C@@]2(CO)C(CC1(C)C)C1=CCC3[C@@]4(C)CC[C@H](O[C@@H]5OC(C(=O)O)[C@@H](O)C(O[C@@H]6OC[C@@H](O)C(O)C6O)C5O[C@@H]5OC(CO)[C@H](O)C(O)C5O)C(C)(C)C4CC[C@@]3(C)[C@]1(C)C[C@H]2O` (stereo partly drawn) [Ba1], the inhibition at 10 µg/mL in experiment [1] (10 ug/ml) came to 30%; in experiment [2] it was 19%; in experiment [3], 25%; in experiment [4], 33%; in experiment [5] (10 ug/ml), 26%; in experiment [6] (10 ug/ml), 10%.
Regarding `CC=C(C)C(=O)OC1C(OC(=O)c2ccccc2)C(C)(C)CC2C3=CCC4C5(C)CCC(OC6OC(C(=O)OC)C(O)C(OC7OCC(O)C(O)C7O)C6OC6OC(CO)C(O)C(O)C6O)C(C)(C)C5CCC4(C)C3(C)CC(O)C21CO` [Ba4, 3-O-[β-D-galactopyranosyl(1→2)]-β-D-xylopyranosyl (1→3)-β-D-methylglucuronopyranosyl-21-O-benzoyl, 22-O-angeloyl-3β, 15α, 21β, 22α, 28-pentahydroxyolean-12-ene], the “% inhibition of Fibronectin secretion” value came to 28% in experiment [1] (10 ug/ml); 18% in experiment [2] (H460 cells); 30% in experiment [3]; 28% in experiment [4]; 24% in experiment [5] (10 ug/ml); 10% in experiment [6] (10 ug/ml).
For the compound `C/C=C(/C)C(=O)O[C@H]1[C@H](OC(=O)C(C)C)[C@@]2(CO)C(CC1(C)C)C1=CCC3[C@@]4(C)CC[C@H](O[C@@H]5OC(C(=O)O)[C@@H](O)C(O[C@@H]6O[C@@H](CO)C(O)C6O)C5O[C@@H]5OC(CO)[C@H](O)C(O)C5O)C(C)(C)C4CC[C@@]3(C)[C@]1(C)[C@@H](O)[C@H]2O` (stereo partly drawn) [Xanifolia Y0, 3-O-[β-D-galactopyranosyl(1→2)]-α-L-arabinofuranosyl(1→3)-β-D-glucuronopyranosyl-21-O-angeloyl, 22-O-(2-methylpropanoyl)-3β, 15α, 16α, 21β, 22α, 28-hexahydroxyolean-12-ene], the inhibition at 10 µg/mL came to 34% in experiment [1] (10 ug/ml); 22% in experiment [2]; 32% in experiment [3]; 40% in experiment [4]; 22% in experiment [5] (10 ug/ml); 27% in experiment [6] (10 ug/ml).
Regarding `C/C=C(/C)C(=O)O[C@H]1[C@H](O)[C@@]2(COC(=O)C(C)CC)C(CC1(C)C)C1=CCC3[C@@]4(C)CC[C@H](O[C@@H]5OC(C(=O)O)[C@@H](O)C(O[C@@H]6O[C@@H](CO)C(O)C6O)C5O[C@@H]5OC(CO)[C@H](O)C(O)C5O)C(C)(C)C4CC[C@@]3(C)[C@]1(C)[C@@H](O)[C@H]2O` (stereo partly drawn) [Xanifolia Y7, 3-O-[β-D-galactopyranosyl-(1→2)]-α-L-arabinofuranosyl-(1→3)-β-D-glucuronopyranosyl-21-O-angeloyl-28-O-2-methylbutanoyl-3β, 15α, 16α, 21β, 22α, 28-hexahydroxyolean-12-ene], the inhibition at 10 µg/mL in experiment [1] (10 ug/ml) came to 34%; in experiment [2] it was 18%; in experiment [3], 60%; in experiment [4], 10%; in experiment [5] (T98G, 10 ug/ml), 24%.
Take beta-Escin [reference compound]: the “growth of cells compared to the DMSO control (MTT)” value in the experiment on ES2(ovarian) cells (ES2, 10 ug/ml (F13)) is recorded as 90%; in the experiment on ES2(ovarian) cells (ES2, 20 ug/ml (F13)), 82%. The “% inhibition of Fibronectin secretion” value in experiment [1] (10 ug/ml) is 7%; in experiment [1] (10 ug/ml, listed as β-ES), 19%; in experiment [1] (20 ug/ml) it was 48%; in experiment [3] it was 47%; in experiment [4] (listed as ES) it was “have inhibition effect”; in experiment [4] (listed as β-ES), 44%. In addition, the figures for the “% inhibition of Fibronectin secretion” value in experiment [5] (20 ug/ml) and in experiment [6] (20 ug/ml) were 66% and 17%, respectively. Further, the results for the “Fibronectin secreted / FN band intensity, % of DMSO control” value in experiment [1] (10 ug/ml) and in experiment [1] (20 ug/ml) were 93% and 52%, respectively.
